{"source": "patent US8143374B2", "about": "“Polypeptide derivatives of parathyroid hormone (PTH)” (The General Hospital Corporation, priority 2006, dated 2012)", "biological_target": "T1, wild-type human PTHR (Homo sapiens, UniProt Q03431)", "T1 construct": "expressed in transfected cells", "T1 sequence (Q03431 27-593)": "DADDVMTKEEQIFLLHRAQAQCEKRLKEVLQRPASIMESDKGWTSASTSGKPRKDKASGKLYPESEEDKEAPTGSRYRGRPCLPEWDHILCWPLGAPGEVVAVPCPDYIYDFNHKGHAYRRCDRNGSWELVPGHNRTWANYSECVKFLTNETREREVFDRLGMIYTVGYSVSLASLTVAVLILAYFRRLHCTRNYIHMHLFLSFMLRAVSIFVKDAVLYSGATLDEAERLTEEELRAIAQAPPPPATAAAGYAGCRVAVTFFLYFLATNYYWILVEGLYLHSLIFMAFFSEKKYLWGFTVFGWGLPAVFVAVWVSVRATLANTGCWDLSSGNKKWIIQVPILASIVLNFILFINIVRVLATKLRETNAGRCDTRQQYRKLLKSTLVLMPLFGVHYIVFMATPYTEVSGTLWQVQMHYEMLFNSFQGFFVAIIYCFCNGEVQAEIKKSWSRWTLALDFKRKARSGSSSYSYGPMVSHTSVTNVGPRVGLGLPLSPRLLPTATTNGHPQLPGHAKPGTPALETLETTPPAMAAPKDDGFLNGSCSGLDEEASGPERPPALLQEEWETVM", "test": "Competition binding in intact HKRK-B7 cells with 125I-PTH(1-34) tracer", "conditions": "for reduction (alteration) of apparent binding affinity for the intact PTHR relative to parent peptide: versus the respective parent peptide; for enhancement in apparent PTHR-binding affinity relative to parent peptide: versus PTH(1-31)NH2; for IC50: hPTH(1-31)NH2 analogs, intact HKRK-B7 cells, 125I-[Nle8,21,Tyr34]ratPTH(1-34)NH2 tracer, read-out: PTHR-WT (HKRK-B7 cells) IC50", "protocol": "Cell Culture—Cells were cultured at 37° C. in a humidified atmosphere containing 5% CO2 in Dulbecco's modified Eagle's medium (DMEM), supplemented with 10% fetal bovine serum (HyClone, Logan Utah), 100 units/ml penicillin G, and 100 ug/ml streptomycin penicillin G/streptomycin (Invitrogen Corp. Carlsbad, Calif.). For binding and cAMP studies performed with the intact PTHR, the HKRK-B7 and ROS 17/2.8 cell lines were used. HKRK-B7 cells are derived from the porcine kidney cell line LLC-PK1 and express, via stable DNA transfection, the wild-type human PTHR at an approximate surface density of 950,000 PTH-binding sites per cell. ROS 17/2.8 cells are rat osteosarcoma cells and express the endogenous PTHR at an approximate surface density of 80,000 PTH-binding sites per cell. The cells were plated and assayed in 24-well plates.\nReceptor binding—Binding to the wild-type human PTHR in intact HKRK-B7 cells and ROS 17/2.8 cells was assessed using ^125I-PTH(1-34) as a tracer radioligand, as described (Shimizu, M., (2001) Endocrinology 142:3068-3074). In brief, the cells in 24-well plates (about 500,000 cells per well) were incubated in binding buffer containing radioligand (about 100,000 cpm per well) with or without unlabeled peptide ligand (3×10^−9 to 1×10^−5 M) for four hours at 15° C. The binding mixture was then removed by aspiration, the cells were rinsed three times with binding buffer, lysed in 1 M NaOH, and the entire lysate was counted for gamma-irradiation in a gamma counter. Binding to PTHR-delNt in COS-7 cell membranes was assessed in 96-well, vacuum filtration plates (Multiscreen-Durapore HV, […] membranes, Millipore Corp., Millford, Mass.) using ^125I-[Aib^1,3,M]PTH(1-15)NH2 as a tracer radioligand, as described (Dean, T., (2006) Mol Endocrinol 20:931-942). In brief, cell membranes (20 μg/well) were incubated in membrane binding buffer containing radioligand (30,000 cpm/well) with or without unlabeled peptide ligand (3×10^−9 to 1×10^−5 M) for 90 minutes at 21° C. The plates were then subject to rapid vacuum filtration, the filters were washed once with buffer, detached from the plate and counted for gamma-irradiation in a gamma counter. Non-specific binding was defined as the binding observed in the presence of 1×10^−6 M PTH(1-31)NH2 for HKRK-B7 and ROS 17/2.8 cells, and 1×10^−6 M [Aib^1,3,M]PTH(1-15)NH2 for PTHR-delNt. Specifically bound radioactivity was calculated as a percentage of the radioactivity specifically bound in the absence of competing ligand.\nData and statistical calculations—Data were processed for curve fitting and derivation of IC50 and EC50 values using least-squares, nonlinear regression analysis and the four parameter logistic equation: […], where y, ymin and ymax are the observed, minimum and maximum response values, respectively; x is ligand concentration, and n is the slope factor. In cases where incomplete inhibition of binding occurred: i.e. with certain PTH(1-31) analogs binding to PTHR-delNt, the curve fits and IC50 values were derived by extrapolating the data to the maximum inhibition attained by [Aib^1,3,M]PTH(1-15)NH2. Paired data sets were statistically compared using a two-tailed Student's t-test, assuming unequal variances for the two sets.", "note": "Where a SMILES comes first, the peptide text is derived from it. Where no end group is shown, it is not given here. [ ]: non-standard residue; d: D form. Phe(4-guanidino) = N=C(N)Nc1ccc(C[C@H](N)C(=O)O)cc1"}
{"molecule": "SVSEIQLMHNLGKHLNSMERVEWARKKLQDV-NH2 [Leu^24→Ala]", "values": [{"measurement": "reduction (alteration) of apparent binding affinity for the intact PTHR relative to parent peptide", "setting": "HKRK-B7 cells", "result": 12, "unit": "fold"}]}
{"molecule": "SVSEIQLMHNLGKHLNSMRRVEWLRKKLQDV-NH2 [Glu^19→Arg]", "values": [{"measurement": "enhancement in apparent PTHR-binding affinity relative to parent peptide", "setting": "HKRK-B7 cells", "result": "≦two-fold"}]}
{"molecule": "CC[C@H](C)[C@H](NC(=O)[C@H](CCC(=O)O)NC(=O)[C@H](CO)NC(=O)[C@@H](NC(=O)[C@@H](N)CO)C(C)C)C(=O)N[C@@H](CCC(N)=O)C(=O)N[C@@H](CC(C)C)C(=O)N[C@@H](CCSC)C(=O)N[C@@H](Cc1c[nH]cn1)C(=O)N[C@@H](CC(N)=O)C(=O)N[C@@H](CC(C)C)C(=O)NCC(=O)N[C@@H](CCCCN)C(=O)N[C@@H](Cc1c[nH]cn1)C(=O)N[C@@H](CC(C)C)C(=O)N[C@@H](CC(N)=O)C(=O)N[C@@H](CO)C(=O)N[C@@H](CCSC)C(=O)N[C@@H](CCC(=O)O)C(=O)N[C@@H](Cc1ccc(NC(=N)N)cc1)C(=O)N[C@H](C(=O)N[C@@H](CCC(=O)O)C(=O)N[C@@H](Cc1c[nH]c2ccccc12)C(=O)N[C@@H](CC(C)C)C(=O)N[C@@H](CCCNC(=N)N)C(=O)N[C@@H](CCCCN)C(=O)N[C@@H](CCCCN)C(=O)N[C@@H](CC(C)C)C(=O)N[C@@H](CCC(N)=O)C(=O)N[C@@H](CC(=O)O)C(=O)N[C@H](C(N)=O)C(C)C)C(C)C", "note": "[Arg^20→Gph] (H-SVSEIQLMHNLGKHLNSME[Phe(4-guanidino)]VEWLRKKLQDV-NH2; N-terminus assumed)", "values": [{"measurement": "detectable binding to the intact PTHR (in words)", "setting": "HKRK-B7 cells", "result": "complete loss of detectable binding affinity"}, {"measurement": "IC50", "result": "> 10000", "unit": "nM"}]}
{"molecule": "AVSEIQLMHNLGKHLNSMRREEWLRKKLQDV-NH2 [Val^21→Glu]", "values": [{"measurement": "reduction (alteration) of apparent binding affinity for the intact PTHR relative to parent peptide", "setting": "HKRK-B7 cells", "result": 12, "unit": "fold"}]}
{"molecule": "SVSEIQLMHNLGKHLNSMERAEWLRKKLQDV-NH2 [Val^21→Ala]", "values": [{"measurement": "reduction (alteration) of apparent binding affinity for the intact PTHR relative to parent peptide", "setting": "HKRK-B7 cells", "result": "three- to four-fold"}]}
{"molecule": "SVSEIQLMHNLGKHLNSMARVEWLRKKLQDV-NH2 [Glu^19→Ala]", "values": [{"measurement": "enhancement in apparent PTHR-binding affinity relative to parent peptide", "setting": "HKRK-B7 cells", "result": "≦two-fold"}, {"measurement": "IC50", "result": "49 ± 11", "unit": "nM"}]}
